Holding throughout (assay type): physicochemical
A short description of series [1]: Evaluation of heat-resistance by calcination of coating of colored alkali-developable photosensitive composition. The conditions noted are these: for relative intensity 230° C., 30 min: absorbance of coating at λmax after calcination 230° C.×30 min, before calcination (after exposure to light) = 100; for λmax: coating of colored alkali-developable photosensitive composition on glass substrate. The protocol:
No. 3 obtained above, and comparative colored alkali-developable photosensitive composition No. 1 were each applied to a glass substrate under conditions of 410 rpm×7 sec, and dried on a hot plate (90° C., 90 sec). The obtained coating was exposed to light by a ultrahigh pressure mercury lamp (150 mJ/cm^2). The coating after the exposure to light was calcined under conditions of 230° C.×30 min. The absorbance of the coating before the calcination (after the exposure to light) and the absorbance of the coating after the calcination at the maximum absorption wavelength (λmax) of the compound (dye) as used were measured, and considering the absorption of the coating before the calcination (after the exposure to light) as 100, the absorbance of the coating after the calcination closer to 100 was evaluated to give higher heat-resistance. The results are shown in [Table 6].

Series [2] is described as follows: Evaluation of absorption wavelength property in CHCl3 solution. The conditions noted are these: maximum absorption wavelength in CHCl3 solution. As for the experimental part: (§1) Bis(4-formylphenyl)phenylamine (0.90 g, 3 mmol), ethyl cyanoacetate (0.75 g, 6.6 mmol) and ethanol (1.26 g) were added to a reaction container and heated to 50° C. under stirring. Triethylamine (0.06 g, 0.6 mmol) was then added dropwise, a reaction was conducted at 50° C. for 2 hours, and the reactant was cooled to room temperature. The reaction solution was subjected to liquid separation with ethyl acetate/water, the organic layer was dried under a reduced pressure, and the precipitated solid was washed with hexane to thereby give 1.13 g (yield 95.2%) of a yellow powder. That the obtained yellow powder was the intended substance was confirmed by ^1H-NMR and IR. Furthermore, the solubility and absorption wavelength properties (absorption wavelength λmax and absorption coefficient ∈) of compound No. 1 were measured. PGMEA was added dropwise to 0.1 g of the compound under stirring, and the solubility was defined as the concentration at the time when PGMEA had completely dissolved the compound. Furthermore, the absorption wavelength properties were measured in a CHCl3 solution.
The maximum absorption wavelengths of Compounds Nos. 1, 2, 5 and 46 and Comparative Compounds Nos. 1 and 2 obtained above were each evaluated in a CHCl3 solution. The results are shown in [Table 5].

Series [3] is described as follows: Evaluation of heat-resistance by TG-DTA. The protocol: Compounds Nos. 1, 2, 5 and 46 and Comparative Compounds Nos. 1 and 2 obtained above were analyzed by TG-DTA to thereby measure the melting points and temperatures at 10% weight loss. The results are shown in [Table 4].
A short description of series [4]: Solubility in PGMEA. The conditions noted are these: PGMEA added dropwise to 0.1 g of compound; concentration when completely dissolved. The protocol: as §1

Data on six molecules can be found in patent publication US20130296455A1, “NOVEL COMPOUND, DYE AND COLORED PHOTOSENSITIVE COMPOSITION” (ADEKA CORPORATION, priority 2011, published 2013).

Take `CCOC(=O)/C(C#N)=C/c1ccc(N(CC)CC)cc1` [Comparative Compound No. 1, reference compound]: the “relative intensity 230° C., 30 min” value in series [1] was 12.5. Besides, the λmax in series [1] and in series [2] was 430 nm in each case. The “temperatures at 10% weight loss” value in series [3] was 259 °C.
For the molecule `CCOCCOC(=O)/C(C#N)=C/c1ccc(N(CC)CC)cc1` [Comparative Compound No. 2, reference compound], the λmax in series [2] amounted to 432 nm. In addition, the “temperatures at 10% weight loss” value in series [3] is 252 °C.
As to `CCOC(=O)/C(C#N)=C/c1ccc(N(c2ccccc2)c2ccc(/C=C(\C#N)C(=O)OCC)cc2)cc1` [Compound No. 1], in series [1], the “relative intensity 230° C., 30 min” value is 94.9 and the λmax was 458 nm. In series [2], the λmax was determined as 460 nm. Further, in series [3], the “temperatures at 10% weight loss” value is 355 °C. In series [4], this molecule came in with a solubility of 4.6 wt %.
For `CCOC(=O)/C(C#N)=C/c1ccc(N(c2ccc(/C=C(\C#N)C(=O)OCC)cc2)c2ccc(/C=C(\C#N)C(=O)OCC)cc2)cc1` [Compound No. 2], in that order: 98.5, 452 nm, 452 nm, 370 °C and 3.5 wt %.
Molecule `CCOC(=O)/C(C#N)=C/c1ccc(N2CCN(c3ccc(/C=C(\C#N)C(=O)OCC)cc3)CC2)cc1` [Compound No. 5] showed a λmax in series [2] of 423 nm. Also, the “temperatures at 10% weight loss” value in series [3] was 345 °C. The solubility in series [4] was determined as 0.1 wt %.
For the molecule `CCOC(=O)/C(C#N)=C/c1ccc(N(CC)CCCCCCN(CC)c2ccc(/C=C(\C#N)C(=O)OCC)cc2)cc1` [Compound No. 46], in series [1], the “relative intensity 230° C., 30 min” value came to 99.9 and the λmax was found to be 436 nm. Also, the λmax in series [2] came to 430 nm. The “temperatures at 10% weight loss” value in series [3] turned out to be 346 °C. In addition, in series [4], the solubility is on record as 0.5 wt %.
